According to PubChem BioAssay AID504341 (Southern Research Specialized Biocontainment Screening …, 2011):
Activity calls are given as the source filed them.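 Rule for the calls: active = compounds blocking at least half of HIV-1 envelope-driven cell fusion at some tested dose; inactive = the rest.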

Each molecule was assayed on MAGI-CCR5/HeLa-R5-16 cell fusion, beta-gal luminescence (assay: CCR5-tropic HIV-1 entry blockers, cell-cell fusion – MAGI-CCR5/HeLa-R5-16 cells, beta-gal luminescence, 2% serum, dose response (AID 504341)).

In order of falling IC50:
1. CCOC(=O)C1=C(C)N=c2sc(=Cc3ccc(OCC(=O)O)cc3)c(=O)n2C1c1cc(OC)c(OC)c(OC)c1 (stereo not drawn)  75.5 µM
2. CCOC(=O)C1=C(C)N=c2sc(=Cc3ccc(OCC(=O)O)cc3)c(=O)n2C1c1ccccc1 (stereo not drawn)  63.1 µM
3. CCc1ccc(-c2ccc(/C=C3\SC(=S)N(CCCC(=O)O)C3=O)o2)cc1  62.4 µM
4. CC1=C(C(=O)OC(C)C)C(c2ccc(Cl)cc2)n2c(s/c(=C\c3ccc(OCC(=O)O)cc3)c2=O)=N1 (stereo not drawn)  56.8 µM
5. CS(=O)(=O)C1=NSC2=NC(=O)/C(=C\c3cccn3-c3cccc(F)c3)C(=N)N21  49.9 µM
6. CCOC(=O)C1=C(C)N=c2sc(=Cc3ccc(OCC(=O)O)cc3)c(=O)n2C1c1ccccc1OC (stereo not drawn)  48.8 µM
7. CS(=O)(=O)C1=NSC2=NC(=O)/C(=C\c3cccn3-c3cccc(C(F)(F)F)c3)C(=N)N21  46.6 µM
8. COc1ccc(-n2cccc2/C=C2/C(=N)N3C(=NC2=O)SN=C3S(C)(=O)=O)cc1Cl  46.4 µM
9. Cc1c2c(=O)n(-c3nc4ccccc4s3)nc-2cc(O)n1Cc1ccccc1Cl  45.6 µM
10. CCOc1ccc(-n2cccc2/C=C2/C(=N)N3C(=NC2=O)SN=C3S(C)(=O)=O)cc1  39.5 µM
11. CCOC(=O)C1=C(C)N=c2sc(=Cc3ccc(OCC(=O)O)cc3)c(=O)n2C1c1ccc(F)cc1 (stereo not drawn)  39.2 µM
12. Cc1c2c(=O)n(-c3nc4ccccc4s3)nc-2cc(O)n1CCC(C)C  39 µM
13. COc1ccccc1NS(=O)(=O)c1ccc2c(c1)C1C=CCC1C(c1ccc(C(=O)O)cc1)N2 (stereo not drawn)  38.7 µM
14. Cc1ccc(-n2cccc2/C=C2/C(=N)N3C(=NC2=O)SN=C3S(C)(=O)=O)cc1  38 µM
15. COc1ccc(-c2ccc(/C=C3\SC(=S)N(CCCC(=O)O)C3=O)o2)cc1  36.6 µM
16. CS(=O)(=O)C1=NSC2=NC(=O)/C(=C\c3cccn3-c3cccc(Cl)c3)C(=N)N21  36.4 µM
17. CS(=O)(=O)C1=NSC2=NC(=O)/C(=C\c3cccn3-c3ccc(Cl)c(Cl)c3)C(=N)N21  35.2 µM
18. CCOC(=O)C1=C(C)N=c2s/c(=C\c3ccc(OCC(=O)O)cc3)c(=O)n2C1c1ccc(Cl)cc1 (stereo not drawn)  34.9 µM
19. CS(=O)(=O)C1=NSC2=NC(=O)/C(=C\c3cccn3-c3ccc(Cl)cc3)C(=N)N21  34.8 µM
20. Cc1c2c(=O)n(-c3nc4ccccc4s3)nc-2cc(O)n1Cc1cccs1  34.5 µM
21. CCc1ccc(-n2cccc2/C=C2/C(=N)N3C(=NC2=O)SN=C3S(C)(=O)=O)cc1  33.3 µM
22. Cc1ccc(-n2cccc2/C=C2/C(=N)N3C(=NC2=O)SN=C3S(C)(=O)=O)cc1C  33.1 µM
23. CS(=O)(=O)C1=NSC2=NC(=O)/C(=C\c3cccn3-c3cc(Cl)cc(Cl)c3)C(=N)N21  32.3 µM
24. CCOC(=O)C1=C(C)N=c2s/c(=C\c3ccc(OCC(=O)O)cc3)c(=O)n2C1c1ccc(OC)c(OCC)c1 (stereo not drawn)  31.3 µM
25. Cc1ccc(-c2ccc(/C=C3\SC(=S)N(CCCC(=O)O)C3=O)o2)cc1  29.1 µM
26. CCOC(=O)C1=C(C)N=c2sc(=Cc3ccc(OCC(=O)O)cc3)c(=O)n2C1c1ccc(OC)cc1OC (stereo not drawn)  29 µM
27. O=C(O)CCCN1C(=O)/C(=C\c2ccc(-c3cccc(Cl)c3)o2)SC1=S  28.5 µM
28. CS(=O)(=O)C1=NSC2=NC(=O)/C(=C\c3cccn3-c3ccc(Br)cc3)C(=N)N21  28.5 µM
29. O=C(O)c1ccc(C2Nc3ccc(S(=O)(=O)Nc4cc(Cl)ccc4Cl)cc3C3C=CCC32)cc1 (stereo not drawn)  28.4 µM
30. CS(=O)(=O)C1=NSC2=NC(=O)/C(=C\c3cccn3-c3ccc(F)cc3)C(=N)N21  27.9 µM
31. CCOC(=O)C1=C(c2ccccc2)N=c2s/c(=C\c3ccc(OCC(=O)O)cc3)c(=O)n2C1c1cccc(OC)c1 (stereo not drawn)  25.8 µM
32. O=C(O)CCCN1C(=O)/C(=C/c2ccc(-c3cccc(C(F)(F)F)c3)o2)SC1=S  24.5 µM
33. O=C(O)c1ccc([C@@H]2Nc3ccc(S(=O)(=O)Nc4cccc5ccccc45)cc3[C@@H]3C=CC[C@@H]32)cc1  23.5 µM
34. Cc1c2c(=O)n(-c3nc4ccccc4s3)nc-2cc(O)n1Cc1ccc(F)cc1  20 µM
35. COc1ccccc1Cn1c(O)cc2nn(-c3nc4ccccc4s3)c(=O)c-2c1C  17 µM
36. Cc1c2c(=O)n(-c3nc4ccccc4s3)nc-2cc(O)n1C1CC1  15.5 µM
37. COc1ccc(Cn2c(O)cc3nn(-c4nc5ccccc5s4)c(=O)c-3c2C)cc1  15.3 µM
38. O=C(O)CCCN1C(=O)/C(=C/c2ccc(-c3ccc(Cl)c(Cl)c3)o2)SC1=S  8.68 µM
39. O=C(O)CCCN1C(=O)/C(=C\c2ccc(-c3ccc(Cl)cc3)o2)SC1=S  8.29 µM
40. Cc1c2c(=O)n(-c3nc4ccccc4s3)nc-2cc(O)n1CCc1ccc(O)cc1  5.19 µM
41. Cc1c2c(=O)n(-c3nc4ccccc4s3)nc-2cc(O)n1Cc1cccnc1  3.54 µM
42. O=C(O)CCCN1C(=O)/C(=C\c2ccc(-c3ccc(Br)cc3)o2)SC1=S  3.49 µM
43. Cc1c2c(=O)n(-c3nc4ccccc4s3)nc-2cc(O)n1Cc1ccncc1  2.96 µM

With `Nc1sc2ccccc2[n+]1Cc1ccc(C(=O)O)cc1` the IC50 was > 100 µM (inactive).
For `O=C(O)CCC(C(=O)O)N1C(=O)/C(=C\c2ccco2)SC1=S` (stereo not drawn), the IC50 was > 100 µM (inactive).
For `O=C(O)c1ccc(C[n+]2c(-c3ccccc3)csc2Nc2ccccc2)cc1`, the IC50 was > 100 µM (inactive).
With `Cc1c2c(=O)n(-c3nc4ccccc4s3)nc-2cc(O)n1CCc1cccs1` the IC50 was > 100 µM (inactive).
In the case of `COc1cccc(-n2cccc2/C=C2/C(=N)N3C(=NC2=O)SN=C3S(C)(=O)=O)c1`, the IC50 is reported as > 100 µM (inactive).
In the case of `O=C(O)CCCN1C(=O)/C(=C\c2ccc(-c3ccc(F)cc3)o2)SC1=S`, the IC50 is reported as > 100 µM (inactive).
In the case of `COc1cccc(C2C(C(=O)Nc3ccccc3)=C(C)N=c3sc(=Cc4ccc(OCC(=O)O)cc4)c(=O)n32)c1` (stereo not drawn), the IC50 is reported as > 100 µM (inactive).
For `O=C(O)c1ccc(C[n+]2c(-c3ccc([N+](=O)[O-])cc3)csc2Nc2ccccc2)cc1`, the IC50 was > 100 µM (inactive).
With `O=C(O)CCCN1C(=O)/C(=C/c2cc3ccccc3o2)SC1=S` the IC50 was > 100 µM (inactive).
For `COc1ccc(CCn2c(O)cc3nn(-c4nc5ccccc5s4)c(=O)c-3c2C)cc1`, the IC50 was > 100 µM (inactive).
